Results as given in patent US6753182B1, “Cryopreservation of plant cells” (Phyton, Inc., priority 1995, dated 2004).
Like-named read-outs stand apart in the source and are kept apart here.

Legend:
[1] = tested on: Taxus cells; assay: Post-thaw viability of cryopreserved Taxus cells (FDA / trypan blue staining); details: for Survival: 3% mannitol, vitrified 40/30 ethylene glycol/sorbitol, post-thaw
Procedure: Culturing cells at high density maximizes the productivity of the cell culture process. […] Cell viability was determined by staining with a 0.05% fluorescein diacetate (FDA) in acetone (J. M. Widholm, Stain Technol 47:189-94, 1972) followed by counting the number of green fluorescein cells upon excitation with blue light in a fluorescence microscope.
After 3 days of incubation in growth medium with mannitol, cells were cold acclimated at 4° C. for 3 hours. Acclimated cells were harvested and transferred to 4 ml cryovials containing a cold vitrifying solution of 40/30 wt % ethylene glycol/sorbitol in media. The vials were incubated at 4° C. for 3 minutes and frozen by immersion into liquid nitrogen. Vials were maintained in liquid nitrogen for at least 10 minutes before use in the thawing experiments.
Vials of frozen cells were removed from liquid nitrogen storage and agitated at 40° C. until the contents are liquefied (1-2 minutes). The liquefied cells were then washed 5 to 6 times with sterile media containing 1 M sorbitol, 3 times with media containing 0.5 M sorbitol media, 3 times with 0.1 M sorbitol media, and 3 times with sorbitol free media. Washing was performed by resuspension of cells in wash media, centrifugation at 50×g for 2 minutes and aspiration of wash media from the cell pellet. Cell viability was determined immediately after thawing.
Various osmotic agents in growth medium were evaluated to determine their effects on the survival of Taxus species cells precultured with the agents, after the preculture period and after thawing of the cryoprotected and frozen Taxus cell suspensions. Cells of three-day cell culture suspensions were precultured in growth medium containing various osmotic agents prior to cryoprotection. Cryoprotected cells were frozen and stored in liquid nitrogen for a minimum of one hour. Viability tests were performed at the end of the preculture period (control) and immediately after thawing of the cryoprotected and frozen cell.
Taxus cells were harvested from cell culture and the biomass resuspended in growth medium containing mannitol at a concentration of 3% for one day or three-days at room temperature. Loaded cells were incubated at 4° C. for 3 hours and transferred to 4 ml cryovials containing cold vitrifying solution comprising 40/30 weight percent ethylene glycol/sorbitol in culture medium. The vials were incubated at 4° C. for three minutes and frozen by liquid nitrogen immersion. Cells contained in the vials were maintained in liquid nitrogen for at least 10 minutes.
Cryopreserved cells were thawed and their viability was determined by FDA and tryptan blue staining procedures.
Cultured Tarus cells were harvested and resuspended in fresh growth medium containing 3% mannitol for 3 days. Cells were cold acclimated for 3 hours and transferred to cryovials containing vitrification solution. Cell suspensions were frozen by liquid nitrogen immersion. Liquid nitrogen frozen cells were thawed by agitating the cryovials in a 40° C. water bath for 1-2 minutes.

[2] = tested on: Taxus species cell line KS1A; assay: Cell viability and growth before and after cryopreservation, line KS1A; format: cell-based; details: 3% mannitol 3 days, before freezing
Procedure: (§1) Six to seven day old cell suspensions of each cell line were harvested and the biomass resuspended in fresh growth medium containing 3% mannitol. Cells were incubated for 3 days at room temperature and thereafter the loaded cells suspensions were incubated at 4° C. for from 3 hours. Cold acclimated cells were transferred to 4 ml cryovials containing a cold vitrification solution of ethylene glycol/sorbitol 40/30 wt %. The vitrification solution and cells were gently mixed and the vials were incubated at […] for 3 minutes. Thereafter, the cell suspensions were frozen by liquid nitrogen immersion for at least 10 minutes.
(§2) After freezing, the cells were thawed by transferring the frozen vials from liquid nitrogen to a 40° C. water bath for 1-2 minutes. Post-thaw cell viability was determined by FDA staining assay. Cells were washed 5-6 times with cold sterile 1M sorbitol media and resuspended in fresh 1 M in medium.
(§3) The cell suspensions free from toxic cryoprotectants were then each separately filtered using a buchner funnel and Whatmann 541 filter paper under sterile conditions. For each cell suspension, the filter with cells was layered on semisolid growth medium containing 0.5M sorbitol and equilibrated for 30 minutes at room temperature. Paper containing cells was transferred to solid growth medium containing 0.1M sorbitol and incubated for 24 hours. […]

[3] = tested on: Taxus species cell line 1220; assay: Cell viability and growth before and after cryopreservation, line 1220; format: cell-based; details: 3% mannitol 3 days, before freezing
Procedure: as §1, §2, §3

[4] = tested on: Taxus species cell line KEIR; assay: Cell viability and growth before and after cryopreservation, line KEIR; format: cell-based; details: 3% mannitol 3 days, before freezing
Procedure: as §1, §2, §3

[5] = tested on: Taxus species cell line 12-14; assay: Cell viability and growth before and after cryopreservation, line 12-14; format: cell-based; details: 3% mannitol 3 days, before freezing
Procedure: as §1, §2, §3

[6] = tested on: Taxus cells; assay: Regrowth of Taxus cells after thawing and osmotic adjustment; format: cell-based, Taxus species; details: after thawing
[7] = tested on: Taxus cells; assay: Viability of Taxus cells at end of preculture period (before freezing); format: cell-based, Taxus species; details: end of preculture period with the osmotic agent, not frozen
[8] = tested on: Taxus species cell line 647; assay: Cell viability and growth before and after cryopreservation, line 647; format: cell-based; details: 3% mannitol 3 days, before freezing
Procedure: as §1, §2, §3

[9] = tested on: Taxus species cell line 1224; assay: Cell viability and growth before and after cryopreservation, line 1224; format: cell-based; details: 3% mannitol 3 days, before freezing
Procedure: as §1, §2, §3

[10] = tested on: Taxus species cell line 12-6; assay: Cell viability and growth before and after cryopreservation, line 12-6; format: cell-based; details: 3% mannitol 3 days, before freezing
Procedure: as §1, §2, §3

[11] = tested on: Taxus suspension cultures (KS1A); assay: Viability of Taxus KS1A cells at end of preculture period; format: cell-based, Taxus species
Procedure: (§4) Cells of Taxus suspension cultures (KS1A) were harvested and precultured with various osmotic agents in the medium. Osmotic agents tested include trehalose, proline, sorbitol (0.15 M-0.8 M), sucrose (2-20%) and mannitol (0.16 M). Viability was evaluated for each cell suspension at the end of the preculture period and immediately after thawing. Regrowth was evaluated after post-thaw osmotic adjustment. The vitrification solutions used were ethylene glycol/sorbitol/pectin and ethylene glycol/sorbitol at 40/30 weight percent in culture medium.

[12] = tested on: Taxus species cell line KS1A; assay: Post-thaw viability of cryopreserved Taxus cell line KS1A (FDA staining); format: cell-based
Procedure: as §4
Six to seven day cell suspensions of Taxus species cell line KS1A were pretreated with 3% mannitol for three days at room temperature. Loaded cells were acclimated to the cold by incubating the flasks at 4° C. for 3 hours. Cold acclimated cells were transferred to 4 ml cryovials and cold vitrification solution was added to each and mixed. After vitrification at 4° C. for three minutes, cells were frozen liquid nitrogen immersion. Vials were maintained in liquid nitrogen for at least 10 minutes.
Cryopreserved cells were thawed by transferring vials from liquid nitrogen and agitated in a 40° C. water bath for 1-2 minutes. Post-thaw viability was determined by FDA staining assay.

[13] = tested on: Taxus cells; assay: Regrowth of Taxus cells after thawing and osmotic adjustment; format: cell-based, Taxus species; details: after thawing; remark: listed apart in the source
Procedure: Cell viability was determined immediately after thawing. The summary of multiple experiments is listed below.
Six to seven day old cell suspensions in growth medium were harvested and the cell biomass resuspended in fresh growth medium containing 0.06 M, 0.12 M, 0.15 M, 0.29 M and 0.58 M sucrose. Cells were cryopreserved, frozen, thawed and osmotically adjusted accordingly. Cell viability was determined immediately after thawing.

[14] = tested on: refractory ovarian, breast and other cancers; details: clinical trials; cited from earlier work
[15] = tested on: microtubles of mammalian cells; details: cited from earlier work
[16] = cryoprotectant in vitrification solution: DMSO 5%-30%, propylene glycol 15%, glycerol 20%-30%, PEG-8000 10%, ethylene glycol 20%-50%, 3% mannitol 3 days, after −196° C. storage
[17] = end of preculture with osmotic agent (sorbitol 0.15 M-0.8 M, sucrose 2%-20%, mannitol 0.16 M)
[18] = cryoprotectants ethylene glycol/sorbitol 40/30 weight percent, immediately after thawing, sorbitol 0.15 M-0.8 M, sucrose 2%-20%, mannitol 0.16 M

## C[S+](C)[O-] [DMSO, dimethylsulfoxide]
[1]; [16]
  Viability: ≦15%

## OCCO [Ethylene Glycol, ethylene glycol]
[1]; [16]
  Viability: 25%-80%
[1]; cryoprotectant in vitrification solution: DMSO 5%-30%, propylene glycol 15%, glycerol 20%-30%, PEG-8000 10%, ethylene glycol 20%-50%, 3% mannitol 3 days, after −196° C. storage, listed as ethylene glycol
  Viability: highest viability

## OCC(O)CO [Glycerol, glycerol]
[1]; [16]
  Viability: 0%

## OC[C@@H](O)[C@@H](O)[C@H](O)[C@H](O)CO [Mannitol, mannitol]
[1]
  Survival (Viability) Frozen: highest percent viability
[1]; 1 day of preculture
  Survival: 50%
[1]; 3 days of preculture
  Survival: 40-80%
[1]; 3 days of preculture, listed as mannitol
  Survival: significantly higher
[1]; Taxus species
  Survival (Viability) Frozen: 40-80%
[1]; Taxus species, 3 days, 0.16 M
  Viability: 60%
[1]; Taxus species, 3 days, 0.22 M
  Viability: 30%
[1]; Taxus species, 3 days, 0.33 M
  Viability: 30%
[1]; Taxus species, 3 days, 0.44 M
  Viability: 20%
[2]
  Viability (preculture): ≧95%
[3]
  Viability (preculture): ≧95%
[4]
  Viability (preculture): ≧95%
[5]
  Viability (preculture): ≧95%
[6]; 0.16 M mannitol preculture 3 days
  Regrowth: vigorous
[6]; 0.22 M mannitol preculture 3 days
  Regrowth: slight
[6]; 0.33 M mannitol preculture 3 days
  Regrowth: slight
[6]; 0.44 M mannitol preculture 3 days
  Regrowth: slight
[7]
  Survival (Viability) Control: 50-95%
[8]
  Viability (preculture): ≧95%
[9]
  Viability (preculture): ≧95%
[10]
  Viability (preculture): ≧95%
[11]; [17]
  Viability: 75-95%
[12]; [18]
  Recovery Viability: 40-80%
[12]; cryoprotectants ethylene glycol/sorbitol 40/30 weight percent, immediately after thawing, sorbitol 0.15 M-0.8 M, sucrose 2%-20%, mannitol 0.16 M, listed as mannitol
  Recovery Viability: highest percent viability

## O=C(O)[C@@H]1CCCN1 [Proline, proline]
[1]; Taxus species
  Survival (Viability) Frozen: <15%
[7]
  Survival (Viability) Control: <50%
[11]; Taxus species
  Viability: 50-95%
[12]; Taxus species
  Recovery Viability: <15%

## CC(O)CO (centres unmarked) [Propylene Glycol, propylene glycol]
[1]; [16]
  Viability: 0%

## OC[C@@H](O)[C@@H](O)[C@H](O)[C@@H](O)CO [Sorbitol, sorbitol]
[1]; Taxus species
  Survival (Viability) Frozen: 30-70%
[6]; 0.15 M sorbitol pretreatment
  Regrowth: none
[6]; 0.22 M sorbitol pretreatment
  Regrowth: vigorous
[6]; 0.33 M sorbitol pretreatment
  Regrowth: vigorous
[6]; 0.44 M sorbitol pretreatment
  Regrowth: vigorous
[6]; 0.80 M sorbitol pretreatment
  Regrowth: slight
[7]
  Survival (Viability) Control: 50-95%
[11]; [17]
  Viability: 50-95%
[12]; [18]
  Recovery Viability: 30-70%

## OC[C@H]1O[C@@](CO)(O[C@H]2O[C@H](CO)[C@@H](O)[C@H](O)[C@H]2O)[C@@H](O)[C@@H]1O [Sucrose, sucrose]
[1]; Taxus species
  Survival (Viability) Frozen: 20-50%
[13]; 0.06 M sucrose pretreatment
  Regrowth: slight
[13]; 0.12 M sucrose pretreatment
  Regrowth: slight
[13]; 0.15 M sucrose pretreatment
  Regrowth: slight
[13]; 0.29 M sucrose pretreatment
  Regrowth: slight
[13]; 0.58 M sucrose pretreatment
  Regrowth: slight
[7]
  Survival (Viability) Control: 50-95%
[11]; Taxus species
  Viability: 50-95%
[12]; Taxus species
  Recovery Viability: <10-40%

## OC[C@H]1O[C@H](O[C@H]2O[C@H](CO)[C@@H](O)[C@H](O)[C@H]2O)[C@H](O)[C@@H](O)[C@@H]1O [Trehalose, trehalose]
[1]; Taxus species
  Survival (Viability) Frozen: <15%
[7]
  Survival (Viability) Control: 50-95%

## CC(=O)O[C@H]1C(=O)[C@@]2(C)[C@H]([C@H](OC(=O)c3ccccc3)[C@]3(O)C[C@H](OC(=O)[C@H](O)[C@@H](NC(=O)c4ccccc4)c4ccccc4)C(C)=C1C3(C)C)[C@]1(OC(C)=O)CO[C@@H]1C[C@@H]2O [taxol]
[14]
  clinical efficacy: extremely effective
[15]
  inhibition of the polymerization of microtubles: effectively inhibits

## PEG-8000
[1]
  Viability: 0%
